Reference: PMC12006758 (Frontiers in Chemistry, 2025)
In brackets after ≈: the same amount, converted by molar mass. Like-named read-outs stand apart in the source and are kept apart here.

Experiments:
MCF7 cancer cell line = experiment: MTT cell viability assay, MCF7; format: cell-based; conditions: Homo sapiens
Experimental: (§1) All cell lines were obtained from the Vacsera Cell Culture Library, Tissue Culture Unit, Cairo, Egypt, with ATCC certification. For further details, See Supplementary Appendix A in the supplementary data.
(§2) All cell lines were obtained from the Vacsera Cell Culture Library, Tissue Culture Unit, Cairo, Egypt, with ATCC certification.
(§3) Cells were cultured in DMEM (Invitrogen/Life Technologies) supplemented with 10% FBS (Hyclone), […] (Sigma), and 1% penicillin-streptomycin. Cells were seeded at a density of 1.2–1.8 × 10,000 cells per well in 96-well plates with 100 µL of complete growth medium […]. After 24 hours of incubation, 100 µL of serially diluted sterile test compounds were added to achieve final concentrations ranging from 0.01 to 100 µM, with growth media serving as the negative control. Following another 24-hour incubation, supernatants were removed, and cells were prepared for MTT testing.
(§4) Each experiment included a blank control with complete media but no cells. […] Reconstituted MTT was added to the culture medium at 10% of its volume, and cultures were incubated for 2 to 4 hours, depending on cell type and density.
(§5) Absorbance was measured spectrophotometrically at 570 nm, with background absorbance at 690 nm subtracted. Data from all experiments were recorded, and cell viability percentages were calculated.

PC3 cancer cell line = experiment: MTT cell viability assay, PC3; format: cell-based; conditions: Homo sapiens, read-out: IC50 PC3
Experimental: as §1, §2, §3, §4, §5

[1] = system: normal CCD-986sk cell line; experiment: MTT cell viability assay, normal CCD-986sk; format: cell-based; conditions: Homo sapiens, read-out: IC50 CCD-986sk
Experimental: as §1, §2, §3, §4, §5

p53 = p53 protein expression level in PC3 cells; format: cell-based, human; conditions: DMSO control 151.33 ± 3.33
caspase-3 = experiment: Caspase-3 activity in PC3 cells; format: cell-based, human; conditions: DMSO control 67.02 ± 2.6
Source text: (§6) This notable increase underscores the activation of downstream apoptotic processes, as caspase-3 is a key effector protease responsible for the cleavage of vital cellular substrates during apoptosis. […] The activation of caspase-9 indicates the involvement of the intrinsic (mitochondrial) pathway, consistent with the observed modulation of upstream regulators, including p53, Bax, and Bcl-2.

Bax = Bax protein expression level in PC3 cells; format: cell-based, human; conditions: DMSO control 81.49 ± 3.16
Bcl-2 = Bcl-2 protein expression level in PC3 cells; format: cell-based, human; conditions: DMSO control 21.68 ± 0.7
PC3 cells [2] = experiment: Cell cycle analysis by flow cytometry (PI); format: cell-based, human; conditions: Pyr at IC50 (8.63 μg/mL), 24 hours
Experimental: For further details, See Supplementary Appendix A in the supplementary data.
After treatment, the cells were washed twice with ice-cold phosphate-buffered saline (PBS, pH 7.4, Sigma-Aldrich, Inc.), collected by centrifugation, and fixed in 66% ice-cold ethanol. The cells were subsequently washed with PBS, resuspended in a solution containing 0.1 mg/mL RNase for 30 minutes, stained with 50 µg/mL propidium iodide (PI), and analyzed using the FACSCalibur flow cytometry system (Becton Dickinson, Franklin Lakes, NJ, USA). Cell cycle distributions were determined with CellQuest software (Becton Dickinson).

PC3 cells [3] = experiment: Annexin V-FITC/PI apoptosis assay; format: cell-based, human; conditions: Pyr at IC50 (8.63 μg/mL), 48 hours
Source text: To detect apoptosis in PC3 cancer cells, the Annexin V FITC assay protocol was employed as described in the literature ([Ali et al., 2024]). For further details, See Supplementary Appendix A in the supplementary data.
The Annexin V-FITC Apoptosis Detection Kit (Catalog #: K101-25, Bio Vision Research Products, Mountain View, CA, USA) operates on the principle that during the early stages of apoptosis, phosphatidylserine (PS) translocates from the inner leaflet of the plasma membrane to the extracellular surface. This relocation allows PS to be detected by Annexin V, a protein with high affinity for PS, when conjugated with a fluorescent compound. The staining process is quick, taking only 10 minutes, and apoptosis detection is performed using flow cytometry. The kit differentiates between apoptotic and necrotic cells based on Annexin V-FITC and propidium iodide (PI) labeling. Early apoptotic cells are Annexin V-positive and PI-negative, while late apoptotic cells are both Annexin V-positive and PI-positive.
For the experiment, cells (5 × 10⁵) were cultured in triplicate in Dulbecco’s Modified Eagle Medium (DMEM) at 37 °C in a 5% CO₂ atmosphere for 24 hours to allow for attachment. […] Following incubation, cells were harvested, washed with cold PBS, and resuspended in binding buffer. Annexin V and PI were added, and the cells were incubated at 4 °C in the dark for 30 minutes for staining. Flow cytometric analysis was performed using the FACS Calibur system (Becton Dickinson, Franklin Lakes, NJ, USA) on a minimum of 10⁴ cells. Dot plots were generated, and the total fraction of apoptotic cells was quantified as described.

HT-29 cancer cell line = experiment: MTT cell viability assay, HT-29; format: cell-based; conditions: Homo sapiens, HT-29 colon cancer cells
Experimental: as §1, §2, §3, §4, §5

caspase-9 = experiment: Caspase-9 activity in PC3 cells; format: cell-based, human; conditions: DMSO control 4.66 ± 0.41
Source text: as §6

CA IX = conditions: benzofuran-based SLC-0111 analog; ref Shaldam et al., 2021; cited from earlier work

## NS(=O)(=O)c1ccc(NC(=O)Nc2ccc(F)cc2)cc1 [SLC-0111, reference compound]
MCF7 cancer cell line; MCF7, read-out: IC50 MCF7
  IC50: 18.1 µg/mL (≈ 58.7 µM)
PC3 cancer cell line
  IC50: 8.71 µg/mL (≈ 28.2 µM)
[1]; CCD-986Sk
  IC50: 45.7 µg/mL (≈ 148 µM)

## NS(=O)(=O)c1ccc(NC(=O)Nc2ccncc2)cc1 [Pyr, 4-(3-(pyridin-4-yl)ureido)benzenesulfonamide]
p53
  P53 Conc: 1461.33 ± 10.00 pg/mL
MCF7 cancer cell line; MTT, MCF7 breast cancer cells, read-out: IC50 MCF7
  IC50: 11.2 µg/mL (≈ 38.3 µM)
caspase-3
  Caspase 3 Conc: 573.19 ± 22.27 pg/mL
Bax
  Bax Conc: 477.27 ± 18.54 pg/mL
Bcl-2
  Bcl-2 Conc: 8.88 ± 0.3 pg/mL
PC3 cancer cell line; MTT, PC3 prostate cancer cells
  IC50: 8.36 µg/mL (≈ 28.6 µM)
[1]; MTT, normal CCD-986sk cells
  IC50: 50.3 µg/mL (≈ 172 µM)
PC3 cells [2]; DMSO control 17.50
  DNA content % G2/M: 7.18%
PC3 cells [2]; DMSO control 28.66
  DNA content % S: 16.23%
PC3 cells [2]; DMSO control 53.84
  DNA content % G0-G1: 76.59%
PC3 cells [3]; DMSO control 0.15
  Apoptosis Late: 15.74%
PC3 cells [3]; DMSO control 0.42
  Apoptosis Early: 9.33%
PC3 cells [3]; DMSO control 1.82
  Necrosis: 4.39%
HT-29 cancer cell line
  IC50: 27.7 µg/mL (≈ 94.9 µM)
caspase-9
  Caspase-9 Conc: 41.82 ± 0.95 ng/mL

## NS(=O)(=O)c1ccc(NC(=O)Nc2oc3ccccc3c2Br)cc1 [compound 1]
CA IX
  Ki: 7.1 nM
